Results as given in US12630498B2 (Genzyme Corporation, priority 2019, dated 2026).

Tests used:
[1] = molecular target: T1, CFTR-mediated transepithelial chloride transport in primary human bronchial epithelial cells from a ΔF508 homozygous CF donor (Homo sapiens, UniProt P13569, DEL508-508); assay: TECC24 recording of CFTR-mediated transepithelial chloride transport in CF-HBE cells (AUC fold over DMSO); assay type: cell-based; conditions: test agent 10 μM, 48 hours incubation, AUC of forskolin-stimulated IEQ relative to DMSO
T1 construct: Primary human bronchial epithelial cells from a ΔF508 homozygous CF donor; host or cells: primary CF-HBE cells, ΔF508 homozygous donor
How it was run: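 Equivalent Cl⁻ current was derived from transepithelial voltage and resistance, and its AUC from forskolin (10 μM) to CFTRinh-172 (20 μM) was divided by the DMSO AUC. Benzamil 10 μM blocked ENaC. Cells were ΔF508-homozygous primary bronchial epithelia pretreated 48 h at 36.5 °C in IL-13 medium.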

[2] = molecular target: T2, human Cystic Fibrosis Transmembrane Conductance Regulator (CFTR) harboring the ΔF508 mutation (Homo sapiens, UniProt P13569, DEL508-508); assay: H441 cell ΔF508-CFTR-HRP cell surface assay (Emax and EC50); assay type: cell-based; conditions: for Emax: NCI-H441, NA = Not active
T2 construct: expressed in transfected cells; host or cells: H441 carcinoma line (G418-selected)
How it was run: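 H441 and 41o- bronchial epithelial cells expressing ΔF508-CFTR with an extracellular-loop-4 HRP tag were treated with a 15-point compound series (24.5–0.001 μM) for two nights, H441 at 27° C, 41o- at 37° C with 0.0005 mg/ml doxycycline. Surface HRP luminescence read; % of maximum VX809 signal and EC50 derived.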

T2 sequence (P13569 with tags, fused parts or gaps DEL508-508): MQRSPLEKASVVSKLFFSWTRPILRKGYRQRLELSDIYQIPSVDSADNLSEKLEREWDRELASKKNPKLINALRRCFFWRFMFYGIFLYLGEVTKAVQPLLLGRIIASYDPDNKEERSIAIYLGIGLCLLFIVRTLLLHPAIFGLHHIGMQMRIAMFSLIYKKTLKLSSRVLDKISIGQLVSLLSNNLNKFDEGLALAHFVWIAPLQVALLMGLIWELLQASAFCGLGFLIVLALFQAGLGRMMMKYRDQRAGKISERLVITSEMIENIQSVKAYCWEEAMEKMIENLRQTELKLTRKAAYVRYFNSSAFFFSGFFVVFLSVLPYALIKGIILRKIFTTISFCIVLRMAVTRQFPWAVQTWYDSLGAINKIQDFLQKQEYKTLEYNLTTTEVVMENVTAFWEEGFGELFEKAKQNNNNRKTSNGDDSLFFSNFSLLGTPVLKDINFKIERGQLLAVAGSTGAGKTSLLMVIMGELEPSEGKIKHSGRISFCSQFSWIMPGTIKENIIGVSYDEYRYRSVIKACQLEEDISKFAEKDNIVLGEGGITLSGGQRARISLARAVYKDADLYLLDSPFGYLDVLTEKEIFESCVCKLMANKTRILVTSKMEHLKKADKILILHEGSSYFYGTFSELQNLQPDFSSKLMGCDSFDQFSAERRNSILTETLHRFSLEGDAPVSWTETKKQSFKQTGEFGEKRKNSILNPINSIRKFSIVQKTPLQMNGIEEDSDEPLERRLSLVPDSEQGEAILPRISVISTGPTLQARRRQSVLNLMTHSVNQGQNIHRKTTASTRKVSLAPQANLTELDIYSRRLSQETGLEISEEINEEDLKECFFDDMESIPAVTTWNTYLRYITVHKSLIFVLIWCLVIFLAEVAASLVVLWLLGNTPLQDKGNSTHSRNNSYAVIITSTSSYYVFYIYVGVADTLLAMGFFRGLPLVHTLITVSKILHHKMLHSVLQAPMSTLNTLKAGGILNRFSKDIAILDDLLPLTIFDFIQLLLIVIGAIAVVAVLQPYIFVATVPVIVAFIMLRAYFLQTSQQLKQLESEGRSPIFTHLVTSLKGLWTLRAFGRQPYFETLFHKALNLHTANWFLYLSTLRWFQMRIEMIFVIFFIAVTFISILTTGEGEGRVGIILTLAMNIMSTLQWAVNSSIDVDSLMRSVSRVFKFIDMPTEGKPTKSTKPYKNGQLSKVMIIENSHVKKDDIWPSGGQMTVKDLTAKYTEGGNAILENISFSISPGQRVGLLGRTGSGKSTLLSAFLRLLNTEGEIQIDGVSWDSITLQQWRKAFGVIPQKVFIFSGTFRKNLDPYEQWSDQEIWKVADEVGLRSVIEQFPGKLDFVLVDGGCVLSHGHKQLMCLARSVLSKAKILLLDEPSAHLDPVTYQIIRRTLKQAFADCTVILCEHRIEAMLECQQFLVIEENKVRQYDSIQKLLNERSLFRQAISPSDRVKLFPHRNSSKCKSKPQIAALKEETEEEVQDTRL
T1 sequence (P13569 with tags, fused parts or gaps DEL508-508): as above

| SMILES | TECC24 AUC fold over DMSO @10 μM [1] | EC50 [2] [nM] | Emax [2] [%] |
| --- | --- | --- | --- |
| CCC(C)(C)[C@H](NC(=O)c1ccc2ccc(C)cc2c1OCC1CCCCC1)C(=O)O [Example 281, (S)-2-(1-(cyclohexylmethoxy)-7-methyl-2-naphthamido)-3,3-dimethylpentanoic Acid] | A (“A” refers to AUC @10 uM >6) | 700 | 246 |
| CC(C)(C)[C@H](NC(=O)c1ccc2ccccc2c1OCc1ccc(C(F)(F)C(F)(F)F)cc1)C(=O)O [Example 37, (S)-3,3-dimethyl-2-(1-((4-(perfluoroethyl)benzyl)oxy)-2-naphthamido)butanoic Acid] | C (“C” refers to AUC @10 uM <4) | 300 | 195 |
| CC1([C@H](NC(=O)c2ccc3c(F)cccc3c2OCc2ccc(C(F)(F)F)cc2)C(=O)O)CCCC1 [Example 303, (S)-2-(5-fluoro-1-((4-(trifluoromethyl)benzyl)oxy)-2-naphthamido)-2-(1-methylcyclopentyl)acetic Acid] | B (“B” refers to AUC @10 uM between 4-6) | 700 | 174 |
| CCC1([C@H](NC(=O)c2ccc3ccc(Cl)cc3c2OCc2ccc(OC(F)(F)F)cc2)C(=O)O)CCCC1 [Example 253, (2S)-2-[[7-chloro-1-[[4-(trifluoromethoxy)phenyl]methoxy]naphthalene-2-carbonyl]amino]-2-(1-ethylcyclopentyl)acetic Acid] | A (“A” refers to AUC @10 uM >6) |  | 239 |
| CC(C)(c1ccccc1)[C@H](NC(=O)c1ccc2ccccc2c1OCc1ccc(C(F)(F)F)cc1)C(=O)O [Example 9, (S)-3-methyl-3-phenyl-2-(1-((4-(trifluoromethyl)benzyl)oxy)-2-naphthamido)butanoic Acid] | C (“C” refers to AUC @10 uM <4) | 1100 | 88.4 |
| CC(C)(S[C@@H]1C[C@@H]2CC[C@H]1C2)[C@H](NC(=O)c1ccc2cc(F)ccc2c1OCc1ccc(SC(F)(F)F)cc1)C(=O)O [Example 177, (R)-3-(((1S,2R,4R)-bicyclo[2.2.1]heptan-2-yl)thio)-2-(6-fluoro-1-((4-((trifluoromethyl)thio)benzyl)oxy)-2-naphthamido)-3-methylbutanoic Acid] | C (“C” refers to AUC @10 uM <4) | 700 | 64.7 |
| CCC1([C@H](NC(=O)c2ccc3ccc(F)cc3c2OCc2ccc(C(F)(F)F)cc2)C(=O)O)CCCC1 [Example 314, (S)-2-(1-ethylcyclopentyl)-2-(7-fluoro-1-((4-(trifluoromethyl)benzyl)oxy)-2-naphthamido)acetic Acid] | A (“A” refers to AUC @10 uM >6) | 400 | 233 |
| CCC(C)(C)[C@H](NC(=O)c1ccc2ccc(F)cc2c1OCc1ccc(C(F)(F)F)cc1)C(=O)O [Example 274, (2S)-2-[[7-fluoro-1-[[4-(trifluoromethyl)phenyl]methoxy]naphthalene-2-carbonyl]amino]-3,3-dimethyl-pentanoic Acid] | A (“A” refers to AUC @10 uM >6) | 200 | 195 |
| CC(C)(C)[C@H](NC(=O)c1ccc2c(F)cccc2c1OCc1ccc(OC(F)(F)F)cc1)C(=O)O [Example 221, (2S)-2-[[5-fluoro-1-[[4-(trifluoromethoxy)phenyl]methoxy]naphthalene-2-carbonyl]amino]-3,3-dimethyl-butanoic Acid] | A (“A” refers to AUC @10 uM >6) | 1200 | 125 |
| O=C(N[C@H](C(=O)O)C1CCCCC1)c1ccc2ccccc2c1OCc1ccc(C(F)(F)F)cc1 [Example 128, (S)-2-cyclohexyl-2-(1-((4-(trifluoromethyl)benzyl)oxy)-2-naphthamido)acetic Acid] | A (“A” refers to AUC @10 uM >6) | 500 | 158 |
| CC(C)(C)[C@@H](NC(=O)c1ccc2ccc(Cl)cc2c1OCc1ccc(C(F)(F)F)cc1)C(=O)O [Example 262, (2R)-2-[[7-chloro-1-[[4-(trifluoromethyl)phenyl]methoxy]naphthalene-2-carbonyl]amino]-3,3-dimethyl-butanoic Acid] | A (“A” refers to AUC @10 uM >6) | 1100 | 132 |
| O=C(N[C@H](C(=O)O)C(c1ccccc1)c1ccccc1)c1ccc2cc(F)ccc2c1OCC1CCCCC1 [Example 203] | C (“C” refers to AUC @10 uM <4) | 800 | 101 |
| CC1([C@H](NC(=O)c2ccc3ccc(C(F)(F)F)cc3c2OCc2ccc(C(F)(F)F)cc2)C(=O)O)CCC1 [Example 299, (S)-2-(1-methylcyclobutyl)-2-(7-(trifluoromethyl)-1-((4-(trifluoromethyl)benzyl)oxy)-2-naphthamido)acetic Acid] | A (“A” refers to AUC @10 uM >6) | 200 | 227 |
| O=C(N[C@@H](Cc1ccco1)C(=O)O)c1ccc2ccccc2c1OCc1ccc(C(F)(F)F)cc1 [Example 136, (S)-3-(furan-2-yl)-2-(1-((4-(trifluoromethyl)benzyl)oxy)-2-naphthamido)propanoic Acid] | C (“C” refers to AUC @10 uM <4) | 8100 | 73.6 |
| CC(C)(C)[C@H](NC(=O)c1ccc2ccc(C(F)F)cc2c1OCc1ccc(OC(F)(F)F)cc1)C(=O)O [Example 245, (2S)-2-[[7-(difluoromethyl)-1-[[4-(trifluoromethoxy)phenyl]methoxy]naphthalene-2-carbonyl]amino]-3,3-dimethyl-butanoic Acid] | A (“A” refers to AUC @10 uM >6) | 100 | 284 |
| O=C(N[C@H](C(=O)O)C(c1ccccc1)c1ccccc1)c1ccc2ccccc2c1OCc1ccc(C(F)(F)F)cc1 [Example 126, (S)-3,3-diphenyl-2-(1-((4-(trifluoromethyl)benzyl)oxy)-2-naphthamido)propanoic Acid] | B (“B” refers to AUC @10 uM between 4-6) | 100 | 214 |
| CC(C)(C)[C@@H](NC(=O)c1ccc2ccc(F)cc2c1OCc1ccc(C(F)(F)F)cc1)C(=O)O [Example 261, (2R)-2-[[7-fluoro-1-[[4-(trifluoromethyl)phenyl]methoxy]naphthalene-2-carbonyl]amino]-3,3-dimethyl-butanoic Acid] | A (“A” refers to AUC @10 uM >6) | 900 | 68.4 |
| O=C(N[C@H](C(=O)O)C(c1ccccc1)c1ccccc1)c1ccc2cc(F)ccc2c1OCc1nc2ccccc2s1 [Example 216, (S)-2-(1-(benzo[d]thiazol-2-ylmethoxy)-6-fluoro-2-naphthamido)-3,3-diphenylpropanoic Acid] | C (“C” refers to AUC @10 uM <4) | 900 | 115 |
| O=C(N[C@@H](Cc1ccc(C(F)(F)F)cc1)C(=O)O)c1ccc2cc(F)ccc2c1OCc1ccc(Cl)c(Cl)c1 [Example 210, (S)-2-(1-((3,4-dichlorobenzyl)oxy)-6-fluoro-2-naphthamido)-3-(4-(trifluoromethyl)phenyl)propanoic Acid] | C (“C” refers to AUC @10 uM <4) | 4300 | 38.8 |
